Experimental data from ChEMBL document CHEMBL4396916, “Novel potent substituted 4-amino-2-thiopyrimidines as dual VEGFR-2 and BRAF kinase inhibitors” (Eur J Med Chem, 2019).

What was measured:
[1] = test system: NCI-H23; test: Growth inhibition of human NCI-H23 cells at 10 uM incubated for 48 hrs by sulforhodamine B assay relative to control; format: functional; conditions: NCI-H23, 48 h, read-out: GI
[2] = test system: MCF7; test: Inhibition of VEGFR2 level in human MCF7 cells at 10 uM measured after 48 hrs by ELISA relative to control; format: functional; conditions: MCF7, 48 h
[3] = test system: RPMI-8226; test: Growth inhibition of human RPMI8226 cells at 10 uM incubated for 48 hrs by sulforhodamine B assay relative to control; format: functional; conditions: RPMI-8226, 48 h, read-out: GI
[4] = test system: MCF7; test: Growth inhibition of human MCF7 cells at 10 uM incubated for 48 hrs by sulforhodamine B assay relative to control; format: functional; conditions: MCF7, 48 h, read-out: GI
[5] = test system: MDA-MB-468; test: Growth inhibition of human MDA-MB-468 cells at 10 uM incubated for 48 hrs by sulforhodamine B assay relative to control; format: functional; conditions: MDA-MB-468, 48 h, read-out: GI
[6] = test system: CAKI-1; test: Growth inhibition of human Caki1 cells at 10 uM incubated for 48 hrs by sulforhodamine B assay relative to control; format: functional; conditions: CAKI-1, 48 h, read-out: GI
[7] = test system: HOP-92; test: Growth inhibition of human HOP92 cells at 10 uM incubated for 48 hrs by sulforhodamine B assay relative to control; format: functional; conditions: HOP-92, 48 h, read-out: GI
[8] = test system: EKVX; test: Growth inhibition of human EKVX cells at 10 uM incubated for 48 hrs by sulforhodamine B assay relative to control; format: functional; conditions: read-out: GI
[9] = test system: UO-31; test: Growth inhibition of human UO31 cells at 10 uM incubated for 48 hrs by sulforhodamine B assay relative to control; format: functional; conditions: UO-31, 48 h, read-out: GI
[10] = test system: OVCAR-5; test: Growth inhibition of human OVCAR5 cells at 10 uM incubated for 48 hrs by sulforhodamine B assay relative to control; format: functional; conditions: OVCAR-5, 48 h, read-out: GI
[11] = test system: MOLT-4; test: Growth inhibition of human MOLT4 cells at 10 uM incubated for 48 hrs by sulforhodamine B assay relative to control; format: functional; conditions: MOLT-4, 48 h, read-out: GI
[12] = test system: MDA-MB-231; test: Growth inhibition of human MDA-MB-231 cells at 10 uM incubated for 48 hrs by sulforhodamine B assay relative to control; format: functional; conditions: MDA-MB-231, 48 h, read-out: GI
[13] = test system: Hs-578T; test: Growth inhibition of human Hs578T cells at 10 uM incubated for 48 hrs by sulforhodamine B assay relative to control; format: functional; conditions: read-out: GI
[14] = test system: HCT-116; test: Growth inhibition of human HCT116 cells at 10 uM incubated for 48 hrs by sulforhodamine B assay relative to control; format: functional; conditions: HCT-116, 48 h, read-out: GI
[15] = test system: ACHN; test: Growth inhibition of human ACHN cells at 10 uM incubated for 48 hrs by sulforhodamine B assay relative to control; format: functional; conditions: read-out: GI
[16] = test system: IGROV-1; test: Growth inhibition of human IGROV1 cells at 10 uM incubated for 48 hrs by sulforhodamine B assay relative to control; format: functional; conditions: IGROV-1, 48 h, read-out: GI
[17] = test system: NCI/ADR-RES; test: Growth inhibition of human NCI/ADR-RES cells at 10 uM incubated for 48 hrs by sulforhodamine B assay relative to control; format: functional; conditions: read-out: GI
[18] = test system: NCI-H522; test: Growth inhibition of human NCI-H522 cells at 10 uM incubated for 48 hrs by sulforhodamine B assay relative to control; format: functional; conditions: NCI-H522, 48 h, read-out: GI
[19] = test system: NCI-H226; test: Growth inhibition of human NCI-H226 cells at 10 uM incubated for 48 hrs by sulforhodamine B assay relative to control; format: functional; conditions: NCI-H226, 48 h, read-out: GI
[20] = test system: UACC-62; test: Growth inhibition of human UACC62 cells at 10 uM incubated for 48 hrs by sulforhodamine B assay relative to control; format: functional; conditions: UACC-62, 48 h, read-out: GI
[21] = test system: T47D; test: Cytotoxicity against human T47D cells expressing wild type BRAF measured after 48 hrs by sulforhodamine B assay; format: functional, cell-based
[22] = test system: OVCAR-4; test: Growth inhibition of human OVCAR4 cells at 10 uM incubated for 48 hrs by sulforhodamine B assay relative to control; format: functional; conditions: OVCAR-4, 48 h, read-out: GI
[23] = test system: SN12C; test: Growth inhibition of human SN12C cells at 10 uM incubated for 48 hrs by sulforhodamine B assay relative to control; format: functional; conditions: read-out: GI
[24] = test system: K562; test: Growth inhibition of human K562 cells at 10 uM incubated for 48 hrs by sulforhodamine B assay relative to control; format: functional; conditions: K562, 48 h, read-out: GI
[25] = test system: A498; test: Growth inhibition of human A498 cells at 10 uM incubated for 48 hrs by sulforhodamine B assay relative to control; format: functional; conditions: A498, 48 h, read-out: GI
[26] = test system: PC-3; test: Growth inhibition of human PC3 cells at 10 uM incubated for 48 hrs by sulforhodamine B assay relative to control; format: functional; conditions: PC-3, 48 h, read-out: GI
[27] = test system: CCRF-CEM; test: Growth inhibition of human CCRF-CEM cells at 10 uM incubated for 48 hrs by sulforhodamine B assay relative to control; format: functional; conditions: read-out: GI
[28] = molecular target: Vascular endothelial growth factor receptor 2 (Homo sapiens, UniProt P35968); test: Inhibition of human N-terminal GST tagged VEGFR-2 expressed in baculovirus infected Sf9 cells using poly (Glu,Tyr) 4:1 as substrate in presence of ATP by Kinase-Glo luminescence assay
Sequence of Vascular endothelial growth factor receptor 2 (P35968 whole entry): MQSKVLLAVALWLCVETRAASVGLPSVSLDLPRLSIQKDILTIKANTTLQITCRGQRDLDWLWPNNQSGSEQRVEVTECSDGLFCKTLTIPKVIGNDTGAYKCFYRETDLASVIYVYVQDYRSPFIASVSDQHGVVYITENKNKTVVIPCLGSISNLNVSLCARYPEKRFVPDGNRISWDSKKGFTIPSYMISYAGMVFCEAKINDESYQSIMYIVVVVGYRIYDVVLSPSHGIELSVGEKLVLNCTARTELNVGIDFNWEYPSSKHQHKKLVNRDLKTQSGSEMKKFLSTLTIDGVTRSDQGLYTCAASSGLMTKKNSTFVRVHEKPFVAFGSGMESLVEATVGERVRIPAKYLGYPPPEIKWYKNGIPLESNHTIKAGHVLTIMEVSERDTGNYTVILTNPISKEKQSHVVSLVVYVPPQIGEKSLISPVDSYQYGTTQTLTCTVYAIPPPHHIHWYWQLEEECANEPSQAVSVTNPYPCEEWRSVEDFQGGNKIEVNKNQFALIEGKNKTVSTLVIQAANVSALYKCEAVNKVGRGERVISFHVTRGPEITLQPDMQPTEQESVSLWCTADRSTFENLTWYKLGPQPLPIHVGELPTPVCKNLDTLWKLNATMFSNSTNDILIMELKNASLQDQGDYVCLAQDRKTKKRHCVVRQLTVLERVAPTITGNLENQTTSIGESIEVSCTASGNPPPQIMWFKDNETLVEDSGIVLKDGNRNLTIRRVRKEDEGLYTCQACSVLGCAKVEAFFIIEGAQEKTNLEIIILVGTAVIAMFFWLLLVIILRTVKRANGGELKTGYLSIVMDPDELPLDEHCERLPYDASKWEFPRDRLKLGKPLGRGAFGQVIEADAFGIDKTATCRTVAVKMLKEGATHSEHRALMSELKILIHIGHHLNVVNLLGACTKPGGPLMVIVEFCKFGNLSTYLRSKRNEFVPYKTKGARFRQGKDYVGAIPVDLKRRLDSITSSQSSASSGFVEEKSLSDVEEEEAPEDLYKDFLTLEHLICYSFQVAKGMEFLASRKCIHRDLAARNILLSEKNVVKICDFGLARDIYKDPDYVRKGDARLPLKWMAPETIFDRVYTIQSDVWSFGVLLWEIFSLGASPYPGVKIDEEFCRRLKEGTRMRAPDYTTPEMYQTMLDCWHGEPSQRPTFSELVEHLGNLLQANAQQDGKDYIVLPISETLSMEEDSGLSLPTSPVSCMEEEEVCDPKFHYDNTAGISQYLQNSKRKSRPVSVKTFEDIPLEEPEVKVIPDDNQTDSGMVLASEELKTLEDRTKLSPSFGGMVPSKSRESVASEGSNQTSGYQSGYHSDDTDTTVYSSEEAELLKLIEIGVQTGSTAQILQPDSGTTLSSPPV

[29] = test system: T47D; test: Growth inhibition of human T47D cells at 10 uM incubated for 48 hrs by sulforhodamine B assay relative to control; format: functional; conditions: read-out: GI
[30] = test system: HOP-62; test: Growth inhibition of human HOP62 cells at 10 uM incubated for 48 hrs by sulforhodamine B assay relative to control; format: functional; conditions: HOP-62, 48 h, read-out: GI
[31] = test system: SF-539; test: Growth inhibition of human SF539 cells at 10 uM incubated for 48 hrs by sulforhodamine B assay relative to control; format: functional; conditions: SF-539, 48 h, read-out: GI
[32] = test system: Malme-3M; test: Growth inhibition of human MALME-3M cells at 10 uM incubated for 48 hrs by sulforhodamine B assay relative to control; format: functional; conditions: read-out: GI
[33] = test system: MCF7; test: Cytotoxicity against human MCF7 cells expressing VEGFR2 and wild type BRAF measured after 48 hrs by sulforhodamine B assay; format: functional, cell-based; conditions: MCF7, 48 h
[34] = test system: SK-OV-3; test: Growth inhibition of human SKOV3 cells at 10 uM incubated for 48 hrs by sulforhodamine B assay relative to control; format: functional; conditions: SK-OV-3, 48 h, read-out: GI
[35] = test system: HCT-15; test: Growth inhibition of human HCT15 cells at 10 uM incubated for 48 hrs by sulforhodamine B assay relative to control; format: functional; conditions: HCT-15, 48 h, read-out: GI
[36] = test system: A549; test: Growth inhibition of human A549/ATCC cells at 10 uM incubated for 48 hrs by sulforhodamine B assay relative to control; format: functional; conditions: A549, 48 h, read-out: GI
[37] = test system: DU-145; test: Growth inhibition of human DU145 cells at 10 uM incubated for 48 hrs by sulforhodamine B assay relative to control; format: functional; conditions: DU-145, 48 h, read-out: GI
[38] = test system: KM12; test: Growth inhibition of human KM12 cells at 10 uM incubated for 48 hrs by sulforhodamine B assay relative to control; format: functional; conditions: KM12, 48 h, read-out: GI
[39] = test system: SR; test: Growth inhibition of human SR cells at 10 uM incubated for 48 hrs by sulforhodamine B assay relative to control; format: functional; conditions: read-out: GI
[40] = test system: COLO 205; test: Growth inhibition of human COLO205 cells at 10 uM incubated for 48 hrs by sulforhodamine B assay relative to control; format: functional; conditions: COLO 205, 48 h, read-out: GI
[41] = molecular target: Serine/threonine-protein kinase B-raf (Homo sapiens, UniProt P15056); test: Inhibition of human wild type BRAF by Kinase-Glo luminescence assay
Sequence of Serine/threonine-protein kinase B-raf (P15056 whole entry): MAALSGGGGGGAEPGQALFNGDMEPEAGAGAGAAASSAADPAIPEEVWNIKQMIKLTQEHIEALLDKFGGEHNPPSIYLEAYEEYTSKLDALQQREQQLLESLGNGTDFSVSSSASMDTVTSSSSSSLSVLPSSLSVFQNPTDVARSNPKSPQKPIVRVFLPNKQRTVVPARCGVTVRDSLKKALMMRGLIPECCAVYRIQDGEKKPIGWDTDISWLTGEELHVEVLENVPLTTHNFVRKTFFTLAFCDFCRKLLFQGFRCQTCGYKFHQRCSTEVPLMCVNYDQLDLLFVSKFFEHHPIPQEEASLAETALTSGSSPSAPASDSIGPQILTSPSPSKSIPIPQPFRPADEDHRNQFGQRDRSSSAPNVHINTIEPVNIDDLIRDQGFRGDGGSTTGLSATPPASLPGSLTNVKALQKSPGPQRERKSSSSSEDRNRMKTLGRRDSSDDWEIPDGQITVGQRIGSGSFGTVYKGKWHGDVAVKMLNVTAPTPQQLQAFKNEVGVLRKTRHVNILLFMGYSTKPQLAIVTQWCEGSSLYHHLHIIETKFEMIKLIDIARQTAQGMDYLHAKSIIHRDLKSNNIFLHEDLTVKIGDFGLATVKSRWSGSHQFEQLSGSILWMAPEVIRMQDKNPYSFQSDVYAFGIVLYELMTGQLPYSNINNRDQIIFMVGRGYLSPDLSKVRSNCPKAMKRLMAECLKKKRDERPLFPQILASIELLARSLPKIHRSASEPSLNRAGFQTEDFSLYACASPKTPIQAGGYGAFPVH

[42] = test system: SW-620; test: Growth inhibition of human SW620 cells at 10 uM incubated for 48 hrs by sulforhodamine B assay relative to control; format: functional; conditions: SW-620, 48 h, read-out: GI
[43] = test system: HT-29; test: Growth inhibition of human HT-29 cells at 10 uM incubated for 48 hrs by sulforhodamine B assay relative to control; format: functional; conditions: HT-29, 48 h, read-out: GI

| Compound | inhibition of growth at 10 µM [1] [%] | inhibition of growth at 10 µM [3] [%] | inhibition of growth at 10 µM [5] [%] | inhibition of growth at 10 µM [6] [%] | inhibition of growth at 10 µM [7] [%] | inhibition of growth at 10 µM [9] [%] | inhibition of growth at 10 µM [12] [%] | inhibition of growth at 10 µM [14] [%] | inhibition of growth at 10 µM [15] [%] | inhibition of growth at 10 µM [16] [%] | inhibition of growth at 10 µM [18] [%] | inhibition of growth at 10 µM [19] [%] | inhibition of growth at 10 µM [20] [%] | inhibition of growth at 10 µM [23] [%] | inhibition of growth at 10 µM [24] [%] | inhibition of growth at 10 µM [25] [%] | inhibition of growth at 10 µM [26] [%] | inhibition of growth at 10 µM [27] [%] | IC50 [28] [µM] | inhibition of growth at 10 µM [29] [%] | further results |
| --- | --- | --- | --- | --- | --- | --- | --- | --- | --- | --- | --- | --- | --- | --- | --- | --- | --- | --- | --- | --- | --- |
| CC(=O)c1cccc(Nc2ccnc(SCC(=O)c3ccc(-c4ccccc4)cc3)n2)c1 | 18 | 34 | 14 | 23 | 17 | 40 | 41 | 14 | 12 | 20 | 38 | 22 | 24 | 13 | 16 | 40 | 25 | 28 | 0.74 | 49 | inhibition at 10 µM [2]: 36%; inhibition of growth at 10 µM [4]: 12%; inhibition of growth at 10 µM [8]: 15%; inhibition of growth at 10 µM [10]: 12%; inhibition of growth at 10 µM [11]: 29%; inhibition of growth at 10 µM [13]: 14%; inhibition of growth at 10 µM [17]: 14%; IC50 [21]: 12.1 µM; inhibition of growth at 10 µM [22]: 12%; inhibition of growth at 10 µM [30]: 19%; inhibition of growth at 10 µM [31]: 11%; inhibition of growth at 10 µM [32]: 17%; IC50 [33]: 24.4 µM; inhibition of growth at 10 µM [34]: 22%; inhibition of growth at 10 µM [35]: 15%; inhibition of growth at 10 µM [36]: 14% |
| CC(=O)c1ccc(Nc2ccnc(SCC(=O)c3ccc(-c4ccccc4)cc3)n2)cc1 | 10 | 26 | 13 | 16 | 21 | 27 | 22 | 42 | 26 | 14 | 22 | 11 | 20 | 11 | 10 | 55 | 19 | 22 | 0.28 | 29 | inhibition of growth at 10 µM [37]: 16%; inhibition of growth at 10 µM [38]: 24%; inhibition of growth at 10 µM [39]: 41%; inhibition of growth at 10 µM [40]: 11%; IC50 [41]: 1.05 µM; inhibition of growth at 10 µM [30]: 13%; inhibition of growth at 10 µM [31]: 13%; inhibition of growth at 10 µM [32]: 14%; inhibition of growth at 10 µM [42]: 26%; IC50 [33]: 66.1 µM; inhibition of growth at 10 µM [34]: 11%; inhibition of growth at 10 µM [35]: 13%; inhibition of growth at 10 µM [36]: 20%; inhibition of growth at 10 µM [43]: 16% |
